Measured values as given in a melting point compilation (Tetko et al.; mined from patent text by program, amines drawn as free bases though some values may be those of a salt).

SMILES | melting point
Cc1cc2c3c(cc(C)c2[nH]c1=O)CC(C)(CBr)O3 (configuration not stated) | 257 to 259 °C
CCCCc1nc2c(N)nc3ccccc3c2n1CCCCSC | 127 to 130 °C
CCC1(COCc2ccccc2Cl)CCC(C)(C(N)=S)O1 (configuration not stated) | 78 to 80 °C
Nc1nc(-n2cc(C(=O)O)c(=O)c3c(N)c(F)c(F)c(Cl)c32)c(F)cc1F | 280 °C
CCCCNC(=O)Oc1ccc(C(O)(CC)c2cccc(C(F)(F)F)c2)c(OC(=O)NCCCC)c1 (configuration not stated) | 110 to 111 °C
CCNC(=O)c1cccc(F)c1N | 60 °C
Cn1c(-c2ccccc2)c(CCCl)sc1=S | 116 °C
CCOC(=O)C1=C(COCc2cc(=O)n(C)c(N)n2)NC(C)=C(C(=O)OC)C1c1cccc(Cl)c1Cl (configuration not stated) | 202 to 205 °C
Cc1cc(C(=O)NCc2ccc(Br)cc2F)c(O)cc1F | 149 to 150 °C
CCc1nnc2nc(-c3cccc(C(F)(F)F)c3)ccn12 | 223 to 224 °C
COC(=O)c1ccc(OCCNC(=O)C2Cc3ccccc3N2S(=O)(=O)c2ccc(-c3cc(C(F)(F)F)ccc3Cl)cc2)cc1C(F)(F)F (configuration not stated) | 79 °C
CSC(=N)NS(=O)(=O)c1c(Cl)sc(Cl)c1Br | 113 to 115 °C
CCOC(=O)c1nc(S(C)(=O)=O)n(C)c(=O)c1OCc1ccccc1 | 84 to 85 °C
CCN1C(=O)N(c2c(F)c(OC)cc(OC)c2F)Cc2cnc(SC)nc21 | 165 to 168 °C
COC(=O)c1cn(-c2ccc(OC(C)=O)cc2C)c(C=O)cc1=O | 216 to 217 °C
CCSCCOC(=O)C(=O)Nc1nc(-c2ccccc2)cs1 | 148 to 149 °C
CCCN(CCC)C1CCC2=C(CCCC2=NO)C1 (configuration not stated) | 99 to 102 °C
CSc1nc2c(Cl)cc(Cl)c([N+](=O)[O-])c2s1 | 130 to 132 °C
COC(=O)Cn1c(Cl)c(Cl)c(Cl)c1Cl | 115 °C
CCNC(=S)n1nc(Oc2c(Cl)cc(C(F)(F)F)cc2Cl)cc1C | 94 to 96 °C
CCOc1cc2ncc(C#N)c(Nc3ccc4c(c3)OCO4)c2cc1OCC | 200 to 203 °C

SMILES | melting point
CC(C)(C)OC(=O)C=Cc1cc2ccccc2o1 | 56 to 57 °C
Clc1cn2ccnc2c(Br)n1 | 146 to 147 °C
CCOC(=O)c1cc2cc(NC(=O)OC(C)(C)C)ccc2[nH]1 | 190 to 192 °C
CC(=O)NC1C(Oc2nc[nH]c2C(N)=O)OC(COC(C)=O)C(OC(C)=O)C1OC(C)=O (configuration not stated) | 133 to 135 °C
O=C(O)C1=CS[C@@H]2[C@@H]([C@H](O)c3cn4c(n3)SCC4)C(=O)N12 | 152 °C
O=c1oc(-c2ccc(SC(F)(F)F)cc2)nc2cccc(Cl)c12 | 135 to 140 °C
C=CCOc1ccc(C(=O)Oc2ccc(OCCCCOC(=O)C(=C)C)cc2)cc1 | 62 to 63 °C
COC(=O)N(N=Nc1cc(C(F)(F)F)ccc1C#N)c1cc(C(F)(F)F)ccc1C#N | 88 to 90 °C
NCc1ccc([N+](=O)[O-])cc1O | 210 to 215 °C
O=C(O)c1cc(OCc2ccccc2)c(OCc2ccccc2)c(OCc2ccccc2)c1 | 194 to 195 °C
CCn1c(C(=O)N(C)Cc2cc(C(F)(F)F)cc(C(F)(F)F)c2)c(-c2ccccc2)c2ccccc2c1=O | 105 to 106 °C
BrCC=C(c1ccc(I)cc1)c1ccc(I)cc1 | 105 to 109 °C
CCOC(=O)c1nc2cc(I)c(I)cc2[nH]c1=O | 275 to 276 °C
Cc1nn(C)c2nc3ccccc3c(Cl)c12 | 127 to 129 °C
Clc1cc(Cl)nc(NC2CCCC2)n1 | 48 to 52 °C
Cn1nc(-c2cnc3[nH]cc(C(=O)NCC4CC4)c3n2)c2ccc(F)cc21 | 319 to 322 °C
CC1(C2CCC3C4CCC5CC(CC(=O)O)CCC5(C)C4CCC32C)OCCO1 (configuration not stated) | 164 to 167 °C
CCc1nn(CCCO)c(CC)c1Oc1cc(C#N)cc(C#N)c1 | 93 to 95 °C
CC(=O)N1N=C(c2ccc([N+](=O)[O-])cc2)c2cc(Cl)c(Cl)cc2CC1C (configuration not stated) | 198 to 200 °C
O=C1NC(=S)NC(=O)C1=Cc1c[nH]c2ccccc12 | 320 °C
N#CCc1nc(C(=O)c2ccccc2)no1 | 96.5 to 97.5 °C

SMILES | melting point
COC(=O)Nc1cccc(-c2ccc3nncn3n2)c1 | 210 to 212 °C
COc1c(Cl)nc(Cl)nc1-c1ccco1 | 105 to 107 °C
CCCCCCCCOC(=O)C=CC(=O)OC(=C1C(=O)N(C(N)=O)c2cc(Cl)c(F)cc21)c1cccs1 | 140 to 148 °C
C=CCc1cc(C(=O)CC(=O)C(C)(C)C)cc(OC)c1O | 115 to 116 °C
CC(C)OC(=O)C1=C(O)c2ccccc2S(=O)(=O)N1C | 102 to 103 °C
CCOc1cc(Br)ccc1C=NNC(=N)NN=Cc1ccc(Br)cc1OCC | 195 to 197 °C
CC(=O)Oc1cccc2[nH]ccc12 | 97 to 98 °C
CCCCCC(CC(=O)Nc1cc(CNC(N)=O)ccc1C(C)(C)C)c1ccc(OC)cc1OC (configuration not stated) | 112 to 113 °C
ClCc1cnc2cc(Cl)ccc2c1Cl | 106 to 107 °C
O=C(O)COc1c(-c2cccc(Cl)c2)cc(C(=O)NCCCCCCc2ccccc2)cc1-c1cccc(Cl)c1 | 178 to 181 °C
CC(=O)NCC1CCC(Nc2nc3c(s2)CCCc2ccc(F)cc2-3)CC1 (configuration not stated) | 88 to 91 °C
O=C(Nc1ccncc1)c1cccc(-c2ccc3c(c2)C(Oc2ccc(Cl)cc2Cl)CC3)c1 (configuration not stated) | 226 to 227 °C
CCOC(=O)C(C)c1ccc(N[C@@H](CCC(N)=O)C(=O)O)cc1 (some centres not stated) | 157 to 158 °C
CC(=O)OCC1CC(Nc2cc(Cl)c(Cl)cc2[N+](=O)[O-])C(OC(C)=O)C1OC(C)=O (configuration not stated) | 128 to 130 °C
CCOC(=O)c1csc(N2CCOC2=O)n1 | 157 to 159 °C
Cc1ccc(-c2ccc3c(c2)C=C(C(=O)Nc2ccc(CN(C(C)C)C(C)C)cc2)CCO3)cc1 | 152 to 153 °C
CCCCCCCCNC(=O)n1nc(Oc2ncc(C(F)(F)F)cc2Cl)c(Cl)c1C | 61 to 62 °C
O=C1OCCC1Oc1cc(F)ccc1[N+](=O)[O-] (configuration not stated) | 98 to 100 °C
Fc1ccc(Nc2ncnc3cnc(NC4CCC(N5CCOCC5)CC4)nc23)cc1Cl (configuration not stated) | 233 to 235 °C
O=c1cc(-c2ccncc2)cc[nH]1 | 263 to 265 °C
COC1CCc2oc3ccc(Br)cc3c(=O)c2C1 (configuration not stated) | 139 to 142 °C

More lines, now with the values ahead:

melting point | SMILES
166 to 168 °C | O=C(Nc1cc(-c2ccnc3c(C(=O)c4cccs4)cnn23)ccc1F)c1ccccc1Cl
130 to 132 °C | Cc1c(CO)c2cnnc(OCc3ccccc3)c2n1Cc1ccccc1
295 to 297 °C | Clc1ccc2c(c1)c(-c1ccccc1)nc1nncn12
189 to 191 °C | CC1CCN(Cc2ccc(COc3cccc4c3CN(C3CCC(=O)NC3=O)C4=O)cc2)CC1 (configuration not stated)
213 to 214 °C | OC1(c2ccc(Cl)cc2)CCN(Cc2c[nH]c3ccccc23)CC1
212 to 216 °C | O=C1CCC(=O)N1c1ccc(N2CCN(c3ccc(OCC(O)(Cn4cncn4)c4ccc(Cl)cc4Cl)cc3)CC2)cc1 (configuration not stated)
200 to 202 °C | COc1ccccc1COc1ccc(S(=O)(=O)c2cnc(C)nc2Nc2c(C)cc(C)cc2C)cc1
174 to 176 °C | Clc1ccc(-c2cc(C3CCNCC3)n[nH]2)cc1
135 to 136 °C | Cc1ccc(OCCOc2ccc(C(=O)C(=O)O)cc2)cc1
130 °C | COC(=O)[C@@H]1C[C@H](C(=O)OC(C)(C)C)N(C(=O)CNC(=O)Nc2cccc(C)c2)[C@@H]1c1ccccc1 (racemic)
73 °C | OCCCN1c2ccccc2CCc2sccc21
112 to 116 °C | CCCC1=C(C(=O)OCC)C(c2ccccc2Cl)c2cnn(C(=O)OC(C)(C)C)c2N1 (configuration not stated)
101 to 102 °C | Cc1ccc(OC(=O)N2CCCC2=O)cc1
135 °C | COc1ccc(-n2nc(C(F)F)cc2-c2ccc(S(C)(=O)=O)cc2)cc1
242 to 244 °C | Cc1c(-c2ccccc2)n(-c2ccc(S(C)=O)cc2)c(-c2ccccc2)cc1=O (configuration not stated)
127 to 129 °C | O=C1C(=O)c2ccccc2C2=C1SCC1(CCN(CCCOc3ccccc3)CC1)O2
96 to 96.8 °C | CNCCOc1cccc2c1c1cc(C)ccc1n2Cc1ccccc1
> 250 °C | Cn1c(=O)n(O)c(=O)c2cc(F)c(N3CCCC3)cc21
185 to 189 °C | O=C1NC(c2ccccc2)(c2ccccc2)C(=O)N1CO
75 to 77 °C | O=C1CC(ON(Cc2ccccc2)Cc2ccccc2)C(=O)N1C1CCCCC1 (configuration not stated)

melting point | SMILES
88 to 89 °C | CC(C)OC(=O)c1cc2c3ccccc3n(Cc3ccccc3)c2s1
71 to 72 °C | CCOC(=O)CCn1c(=O)c2ccccc2n(CCCCCl)c1=O
245 to 250 °C | CN1CC(c2ccccc2)=C(O)C1=O
187 to 188 °C | Nc1cc(NC(=O)c2ccccc2)ccn1
150 to 151 °C | CC1(C)CCC(C)(C)c2cc(C(=O)SCc3ccc(C(=O)O)cc3)ccc21
114 to 115 °C | CCCN1N=C2C(=Cc3ccccc3)COCC2C1c1ccccc1 (configuration not stated)
147 to 149 °C | O=S(=O)(c1ccc(Cl)cc1)C(CCO)c1cc(F)ccc1F (configuration not stated)
> 300 °C | Cc1ccc2c(=O)n3nccc3[nH]c2n1
141 to 142 °C | CCNC(=O)N1C(=O)[C@H](O)[C@@H]1c1ccccc1
234 to 235 °C | Cc1ccccc1N1CCN(CC(O)c2ccc(N3CCCNC3=O)cc2)CC1 (configuration not stated)
192 to 193 °C | CCOC(=O)c1sc(-n2c(=O)n(Cc3ccc(F)cc3)c3ccccc32)nc1C
92 °C | O=C(Nc1cccc2ccccc12)OCCCC(O)c1ccccc1 (configuration not stated)
248 to 250 °C | O=c1[nH]c2ncc(-c3cccc(-c4nnn[nH]4)c3)nc2n1CC1CCCCC1
62 to 64 °C | Cc1oc(-c2ccccc2)nc1COc1cccc(CN(O)C(=O)N(C)O)c1
118 to 120 °C | Cc1oc2ccccc2c(=O)c1N
206 to 208 °C | FC(F)(F)c1cc2[nH]c(N3CCN(c4ncccc4C(F)(F)F)CC3)nc2cc1Cl
74 to 76 °C | CCOC(=O)c1ccc(CN2CCC(NC(=O)OC(C)(C)C)CC2)cc1
46 °C | c1ccc2c(c1)Cc1ccncc1N1OC(CN3CCOCC3)CC21 (configuration not stated)
140 °C | Cc1noc(-c2cccc(Oc3ccc4c(c3)S(=O)(=O)NCCO4)c2)n1
